Test results published in PubChem BioAssay (NCI).
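Following 48 hours of exposure in 96-well plates, responses at five concentrations were used to interpolate endpoints linearly. TGI denotes the concentration required for complete inhibition of growth.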 *1 amine or outer side, *2 acyl side, *3 side chain or, on linkers, in order; H or OH if unused. Where a SMILES comes first, the peptide text is derived from it. Bridges are numbered along the chain shown (N, C = ends). [ ]: non-standard residue; d: D form. The star is where a group is joined. ξ: configuration not given here. X34 = O=C(C(CCCCNO[*:3])N[*:1])[*:2]; Fmoc = O=C(OCC1c2ccccc2-c2ccccc21)*; ξW = NC(Cc1c[nH]c2ccccc12)C(=O)O; ξP = O=C(O)C1CCCN1

Legend:
Test in all cases: NCI-60 cell line screen, 48 h
HT29 colon = system: HT29 colon
HCT-116 colon = system: HCT-116 colon
HS 578T breast = system: HS 578T breast
ACHN renal = system: ACHN renal
SK-MEL-5 melanoma = system: SK-MEL-5 melanoma
SNB-75 CNS = system: SNB-75 CNS
HCC-2998 colon = system: HCC-2998 colon
TK-10 renal = system: TK-10 renal
RXF 393 renal = system: RXF 393 renal
NCI-H226 lung = system: NCI-H226 lung
MDA-MB-231 breast = system: MDA-MB-231 breast
HOP-92 NSCLC = system: HOP-92 NSCLC
OVCAR-3 ovarian = system: OVCAR-3 ovarian

Structure (SMILES) | TGI (HT29 colon) [µM] | TGI (HCT-116 colon) [µM] | TGI (HS 578T breast) [µM] | TGI (ACHN renal) [µM] | TGI (SK-MEL-5 melanoma) [µM] | TGI (SNB-75 CNS) [µM] | TGI (HCC-2998 colon) [µM] | TGI (TK-10 renal) [µM] | TGI (RXF 393 renal) [µM] | TGI (NCI-H226 lung) [µM] | TGI (MDA-MB-231 breast) [µM] | TGI (HOP-92 NSCLC) [µM] | TGI (OVCAR-3 ovarian) [µM]
O=C1CCC[C@@H]2NC[C@@H](c3ccc4c(c3)OCO4)[C@H]12 | > 25 | > 25 | > 25 | > 25 | > 25 | > 25 | > 25 | > 25 | > 25 | > 25 | > 25 | > 25 | 
O=C1C(Cl)=C(N2CCN(C3=C(Cl)C(=O)c4ccccc4C3=O)CC2)C(=O)c2ccccc21 | 5.27 | 2.76 | 7.12 | 3.09 | 3.25 | 9.86 | 8.35 | 3.42 | 3.02 | 11.8 | 3.34 | 2.4 | 3.02
COc1cc(-c2cc(=O)c3cc4c(cc3[nH]2)OCO4)cc(OC)c1O | > 10 | > 10 | > 10 | > 10 | > 10 | > 10 | > 10 | > 10 | > 10 | > 10 | > 10 | > 10 | > 10
C[N+]1=C2[B-](C(C)(C)C)=[N+](C(C)(C)C)[B-]2(C(C)(C)C)[N+](C)=C2[B-](C(C)(C)C)=[N+](C(C)(C)C)[B-]21C(C)(C)C (stereo not given) | > 100 | > 100 | > 100 | > 100 | > 100 | > 100 | > 100 | > 100 | > 100 | > 100 | > 100 | > 100 | > 100
CCCc1cc(=O)c2c(C)c3[nH]c4ccc(Cl)cc4c3c(C)c2[nH]1 | 3.31 | 3.09 | 32.7 | 3.71 | 21.4 | 7.93 | 3.02 | 4.06 | 3.86 | 12.8 | 3.97 | 5.1 | 
CCN(CC)CCc1c2c(nc3ccccc13)C(=O)c1cccnc1C2=O | 11.1 | 3.53 | > 100 |  | 1.34 | 16.7 | 7.55 | 12.6 | 7 | 18.2 | 6.72 | 40.1 | 5.8
Brc1ccc(CCNCCN2CCCCC2)cc1 | 15.4 | 24.4 | 38.1 | 42.6 | 20.6 | 26.3 | 27.7 | 28.8 | 49.8 | 59 | 21.4 | 23.5 | 29.7
COc1ccc(-c2cc(-c3ccco3)c(C#N)c(=S)n2C2OC(COC(C)=O)C(OC(C)=O)C(OC(C)=O)C2OC(C)=O)cc1 (stereo not given) | 14.8 | 22.8 | 21.1 | 19.4 | 22.8 | 17.7 | 48.4 | 45.1 | 21.3 | 16.5 | 16.1 | 13 | 19.7
O=C(NNC(=S)Nc1ccc(Cl)cc1)c1cc(-c2ccccc2)nc2ccccc12 | 34.9 | 13.5 | 32.4 | 22.7 | 16.4 | 39.8 | 11.5 | 21.7 | 21.9 | 28.9 | 29.4 | 13.6 | 8.91
CC(=O)OCC(C)C1=C(O)C(=O)C2(C)C/C=C(/C)CC/C=C(\C)CCC(O)C(C)CCC12 (stereo not given) | 33.3 | 32.8 | 52.9 | 30.9 | 32.1 | 30.5 |  | 35.9 | 27.4 | 33.5 | 30.4 | 33.7 | 29.3
C=C(C)C12CC(COC(=O)c3ccccc3)C34OC5(OC1C3C1OC1(CO)C(O)C1(O)C(OC(=O)c3ccccc3)C(C)C(C(C)CCCCCCC5O)C14)O2 (stereo not given) | 54.7 | > 100 | > 100 | > 100 | > 100 | > 100 | > 64.8 | 81.2 | > 100 | > 100 | > 100 | > 100 | > 100
CCOc1cc(NC(C)=O)ccc1C(=O)NNC(=O)c1ccccc1OC(C)=O | > 100 | > 36.8 | > 100 | > 100 | 22.6 | > 38.7 | > 100 | 7.03 | > 30.2 | > 59.3 | > 100 | > 100 | > 100
O=C1/C(=C/c2ccccc2)N=C(c2ccccc2)N1n1c(-c2ccccc2)nc2ccccc2c1=O | > 100 | > 100 | > 100 | > 100 | > 100 | > 100 | > 100 | > 100 | > 100 | > 100 | > 100 | > 100 | > 100
NC(=O)CNC(=O)C1CCCN1C(=O)C1CCCCNOC(=O)CC[C@@H](NC(=O)OCC2c3ccccc3-c3ccccc32)C(=O)NC(Cc2c[nH]c3ccccc23)C(=O)N1 (stereo not given in full) (Fmoc-[dE][ξW][X34][ξP]G-NH2; ester 1-3) | > 100 | > 100 | > 100 | > 100 | > 100 | > 100 | > 100 | > 100 | > 100 | > 100 | > 100 | > 100 | > 100
COC(=O)C(/C(=N/NC(N)=O)C(=O)Nc1ccc(C)cc1)c1nc2ccc([N+](=O)[O-])cc2[nH]c1=O (stereo not given) | > 100 | > 100 | > 100 |  | > 100 | > 100 | > 100 | > 100 | > 100 | > 100 | > 100 | > 100 | > 100
CN1C(=O)N(c2ccccc2)C2(CCN(CC3COc4ccccc4O3)CC2)C1=O (stereo not given) | > 100 | > 100 | > 100 | > 100 | > 100 |  | > 100 | > 100 | > 100 | > 100 | > 100 | > 100 | 89.2
Cc1nnc2n1N=C(c1cc(F)c(Cl)cc1Cl)/C(=C/c1ccc(Cl)cc1)S2 | 34.5 | 21 | > 100 | 41.7 | 41.3 |  | 28.5 | > 100 | 40.5 | 63.4 | 47.6 | 60.1 | 25.2
O=C(CN1c2ccccc2Sc2ccccc21)N1CCNCC1 | > 100 | > 100 | > 100 | > 100 | > 100 | > 100 |  | > 100 | > 100 | > 100 | > 100 | > 100 | > 100
CC(C)(N=NC(C)(C)C(=O)NCCO)C(=O)NCCO | > 100 | > 100 | > 100 | > 100 | > 100 |  | > 100 | > 100 | > 100 | > 100 | > 100 | > 100 | > 100
Nc1ccc2nc(-c3ccccn3)c(-c3ccccn3)nc2c1 |  | > 100 | > 100 | > 100 | > 100 | > 100 | > 100 | > 100 | > 100 | > 100 | > 100 | > 100 | > 100
CSc1nc(Cl)c2c(n1)Sc1nc3cc4c(cc3n1C2O)OCCO4 (stereo not given) | 18.9 | 26.6 | 23.6 | 26.8 |  | 36.4 | 12.1 | 32.9 | 19.3 | 0.889 | 34.3 | 4.41 | 2.46
O=C(CC(=O)n1nc(-c2ccccc2)c(N=Nc2ccccc2C(=O)O)c1-c1ccccc1)Nc1ccc(Cl)cc1 | > 100 | > 100 | > 100 | > 100 | > 100 | 83.1 | > 100 | > 100 | 80.8 | > 100 | > 100 | 42.2 | 
CN1C(=O)C2C(=O)N(Cc3ccccc3)CC(=O)N2c2cccnc21 (stereo not given) | > 100 | > 100 | > 100 | > 100 | > 100 | > 100 |  | > 100 | > 100 | > 100 | > 100 | > 100 | > 100
S=C(N/N=C\C=N/NC(=S)N1CCCCC1)N1CCCCC1 | > 100 | > 100 | > 51.9 |  | > 32.4 | > 100 | > 100 | > 100 | 6.06 | > 68.1 | > 100 | 45.8 | 78.2
CN(C)CCCOc1nc2c(c(=O)n(C)c(=O)n2C)n1C (tested in a mixture with another compound) | > 100 | > 100 | > 100 | 68.8 | 48.6 | > 100 |  | 42.1 | > 100 | 47.7 | 32.2 | > 100 | > 100
